# Measurements from article PMC5719457, “Pseudomonas aeruginosa zinc uptake in chelating environment is primarily mediated by the metallophore pseudopaline” (Scientific Reports, 2017).
# pKd: −log10 of the molar value.
# Experiments:
# PaCntL = target: T1, PaCntL (Pseudomonas aeruginosa, UniProt A0A0H2ZHV3); experiment: TLC with […]-SAM; HILIC/ESI-MS; type: biochemical; settings: product yNA
# T1 construct: gene cntL; full length, C-terminal His6 tag (pET22b+), E. coli BL21
# PaCntM = target: T2, PaCntM (Pseudomonas aeruginosa, UniProt A0A0H2ZH12); experiment: fluorescence resonance energy transfer titration (Trp to NAD(P)H); type: binding
# T2 construct: gene cntM; full length, N-terminal His6 tag (TEV-cleavable, pET-TEV), E. coli BL21
# T2 sequence (A0A0H2ZH12 whole entry): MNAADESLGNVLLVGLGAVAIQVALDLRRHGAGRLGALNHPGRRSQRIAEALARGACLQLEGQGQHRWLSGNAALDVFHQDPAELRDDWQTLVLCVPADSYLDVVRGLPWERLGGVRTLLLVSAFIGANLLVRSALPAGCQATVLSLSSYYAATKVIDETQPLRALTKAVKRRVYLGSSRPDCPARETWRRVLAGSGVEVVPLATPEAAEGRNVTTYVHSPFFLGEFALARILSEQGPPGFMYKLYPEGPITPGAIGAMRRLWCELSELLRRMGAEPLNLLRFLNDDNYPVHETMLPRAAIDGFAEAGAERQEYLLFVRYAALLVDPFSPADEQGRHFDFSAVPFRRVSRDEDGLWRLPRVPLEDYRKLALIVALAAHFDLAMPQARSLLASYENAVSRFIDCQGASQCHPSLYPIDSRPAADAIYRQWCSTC
# T1 sequence (A0A0H2ZHV3 whole entry): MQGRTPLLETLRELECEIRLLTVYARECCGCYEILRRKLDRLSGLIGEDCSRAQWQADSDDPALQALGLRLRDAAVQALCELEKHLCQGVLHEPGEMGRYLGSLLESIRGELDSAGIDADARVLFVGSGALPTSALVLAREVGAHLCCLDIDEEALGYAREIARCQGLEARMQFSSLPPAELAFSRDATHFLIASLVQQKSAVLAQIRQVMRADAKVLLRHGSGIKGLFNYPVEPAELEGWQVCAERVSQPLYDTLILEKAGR
smiles,measurement,setting,value
C[S+](CC[C@H](N)C(=O)O)C[C@H]1O[C@@H](n2cnc3c(N)ncnc32)[C@H](O)[C@@H]1O (stereo partly drawn) [SAM],TLC with [14C]-SAM; HILIC/ESI-MS,"PaCntL; co-substrate L-histidine, labelled compound (carboxyl-14C) in TLC",incubation of PaCntL with SAM and L-histidine led to the formation of the yNA
N[C@@H](Cc1cnc[nH]1)C(=O)O [L-histidine],TLC with [14C]-SAM; HILIC/ESI-MS,PaCntL; co-substrate SAM,Only the incubation with L-histidine led to a novel band
NC(=O)C1=CN([C@@H]2O[C@H](COP(=O)(O)OP(=O)(O)OC[C@H]3O[C@@H](n4cnc5c(N)ncnc54)[C@H](O)[C@@H]3O)[C@@H](O)[C@H]2O)C=CC1 [NADH],pKd,PaCntM,4.52
